The source of these data is EP0407582A1, “DERIVATIVES OF TRICHLOROPHOSPHAS[…] INSECTICIDAL, VIRICIDAL, HEMATOCIDAL, FUNGICIDAL AND OVOCIDAL PREPARATIONS BASED ON THEM” (priority 1989, dated 1990).

Like-named read-outs stand apart in the source and are kept apart here.

In series [1] the test system is domestic flies. In words: Insecticidal activity, laboratory test in gauze boxes. The class given is in vivo. The conditions noted are these: 0.25% solution in 5% aqueous glucose solution; death rate estimated in 48 - 72 hours. As to the method:
An insecticidal composition based thereon, which was a 0.25% solution of this compound in a 5% aqueous glucose solution, was prepared. The laboratory and large-scale tests of the activity of an insecticidal composition of the invention was conducted on domestic flies. for laboratory tests into the gauze-made boxes (10x10 cm, 6 boxes), there were placed 6-7-day flies of both sexes by 50 individuals per each box. Into 5 boxes there were placed Petri dishes containing the insecticidal composition of the invention. The death rate of flies was estimated-in 48 - 72 hours. A Petri dish containing a 5% aqueous solution of glucose was placed into the control box. The insecticidal activity of the composition, according to the invention, was tested in comparison with a known insecticidal composition containing 0,0-dimethyl-/1-hydroay-2,2-trichloroethyl/phosphonate.

In series [2] the test system is domestic flies. In words: Insecticidal activity, large-scale test in living and industrial premises. The class given is in vivo. The conditions noted are these: 0.25% solution with 5% glucose solution, 2-3 dishes per 20 m2; 72 hours. How it is done:
The large-scale tests of the activity of the insecticidal composition, according to the invention, was conducted on domestic flies in living and industrial premises. Petri dishes containing a 0.25% aqueous solution of the insecticide, according to the invention, added with a 5% glucose solution, were put at a rate of 2-3 dishes per 20 m2. The .activity of the composition of the invention was estimated by a direct count of dead insects in 72 hours or by using the adhesive tapes, counting the number of flies on the tape prior and after carrying out the test.

The next series relates to mice and rats. The following applies: cited from earlier work.
Series [3] concerns invasion larvae of a root-knot nematode. In words: Nematocidal activity, laboratory test. In kind it is in vivo. The following applies: Meloidogyne javanica; 1% solution in water; 24 hrs; read-out: Larva death, % Tests laboratory. As to the method: (§1) The process was carried out in manner similar to that described in Example 3. […] The insecticidal activity was tested in a manner similar to that described in Example 3. A nematocidal composition based on the compound.-was prepared which was its 1% solution in water. A nematocidal effect of the composition was tested in laboratory conditions to the invasion larvae of a root-knot nematode. For testing it, one drop of a suspension containing 100 invasion larvae of root-knot nematodes was placed onto the cover glasses having cells. Thereafter, one drop of the nematocidal composition of the invention was put thereto. One drop of distilled water instead of the test composition was placed into the control cell..The glasses with test and control cells were put on a moisten ashless filter of a Petri dish, and 24 hrs later the killed nematodes were registered. The tests were repeated three times. The nematocidal activity of the composition, according to the invention was tested in comparison with the known nematocidal preparation containing 0,0-dimethyl-0-2,2/dichlorovinyl/phosphate. The field tests were carried out at the 5 m^2 plots affected by tomato nematodes. For testing it, the plots were treated with the nematocidal composition of the invention and the known nematocidal composition.

Another series concerns tomato nematodes. In words: Nematocidal activity, field test on 5 m2 plots. The class given is in vivo. The conditions noted are these: 1% solution in water, read-out: Larva death, % Tests field. How it is done:
as §1

Another series relates to hepatitis B virus. In words: Virucidal activity, suspension method under protein loading, counter-current immunoelectrophoresis. The conditions noted are these: concentration 1 %.
The next series has as its system influenza A virus. In words: microbe, parasite or virus in culture. Also noted: species or system strain of influenza A1 virus. The following applies: concentration 1 %.
The next series deals with poliomyelitis virus. In words: microbe, parasite or virus in culture. The following applies: concentration 1 %. The class given is cell-based, poliomyelitis-II virus.
A further series deals with pig ascarid ovigerms. In words: Ovocidal activity on watch glasses, 2% solution. In kind it is in vivo. The conditions noted are these: concentration 2 %. As to the method: An ovocidal composition based on this compound was prepared in the form of a 2% solution thereof in distilled water. An ovocidal activity of the composition, according to the invention, was tested as follows.
A drop of a suspension containing at least 1.000 ascarid ovigerms was placed onto the watch glasses followed by adding thereto by 1 ml of the composition of the invention. Thereafter the watch glasses were put them into a humid chamber of a thermostat at a temperature of 24 - 26 °C. In every […] the watch glasses with ascarid ovigerms and with the composition of the invention were withdrawn from the thermostat and washed with distilled water for 2-3 times.
Then, the washed ascaride ovigerms were cultured for 30 days at a temperature of 24 - 26 °C. To determine the number of dead and viable ovigerms 200 ova were visualized under a microscope in every 3-5 days. Their death was determined by lack of the development of ovigerms up to the stage of larva and the.presence of destructive morphological changes for 30 days. An ovocidal activity of known composition based.on carbathion was determined by the same procedure. Control was carried out under the same conditions by adding a physiological saly solution. The death percentage of ova was estimated as a mean value of three results with the correction for death of ovigerms in the control and in comparison with the known compositions.

Series [4] has as its system leaves of tomatoes and cucumbers. In words: Phytotoxicity of the nematocidal composition. In kind it is in vivo. The conditions noted are these: 1% solution in water.
A short description of series [5]: Solubility in water and organic solvents. The conditions noted are these: qualitative, solvents named. The class given is physicochemical.
The subject of a further series is pig ascaride ovigerms. In words: Ovocidal activity on watch glasses, 3% solution, laboratory test. In kind it is in vivo. The conditions noted are these: Sus scrofa, read-out: % Death of ovigerms Tests laboratory. As to the method: A drop of a suspension containing at least 1,000 ascarid ovigerms was placed onto watch glasses followed by adding one droplet of a 3% solution of the composition of the invention. Thereafter, they were put into a humid chamber of a thermostat at a temperature of 24-26 °C. In every 24 hours during 3 days the watch glasses with ascarid ova and the composition of the invention were withdrawn from the thermostat and washed with distilled water 2-3 times.
Then, the washed ascarid ovigerms were incubated for 30 days at a temperature of 24 - 26-°C. To determine the number of dead and viable ova, 200 ovigerms were observed by means of a microscope every 3 - 5 days. The death was determined by lack of ova development for 30 days up to the stage of a mobile larva and the presence of destructive morphological changes: shrinkage and deformation of embryos, rupture of shells. The known composition - carbathion was tested under the same conditions by adding a solvent. The percentage death of ova was estimated as a mean value of three results with a correction for ova death in the control and_in-comparison with the known composition.

Another series concerns helminthic ova. In words: Ovocidal activity, large-scale disinfection of ambient objects. The conditions noted are these: 3% aqueous solution; ambient objects (equipment, tableware, hands); read-out: % Death of ovigerms Tests large-scale. As to the method:
Based on this compound, there was prepared the ovocidal composition in the form of 3% solution thereof. The ovocidal activity of the composition, according to the invention, was tested disinfection of ambient objects (equipment, tableware, hands). For this purpose, a 3% aqueous solution of the compound, according to the invention, was used for treating said objects. The. efficiency of the ovocidal action was determined by the number of helminthic ova in washings from the ambient objects before and after treating them with the ovocidal composition of the invention.

[6] abbreviates: 24 h, read-out: Death of ascarid ovigerms (%) in 24 h.
The mark [7] stands for this setting: 48 h, read-out: Death of ascarid ovigerms (%) in 48 h.

“0,0-dimethyl(1-hydroxy-2,2,2-trichloroethyl) phosphonate [Known insecticidal composition]”: the “Death of flies, % Tests laboratory” value with domestic flies [1] is recorded as 85%. In addition, the “Death of flies, % Tests large-scale” value with domestic flies [2] amounted to 83%. Besides, the LDSO with mice and rats is 225 to 1200 mg/kg.

Regarding `O=C(N=P(OC(CCl)c1ccccc1)(OC(CCl)c1ccccc1)OC(CCl)c1ccccc1)c1ccccc1` (stereo not drawn) [Example 3, tris/2-chloro-1-phenylethoxy/phosphazobenzoyl], the “Death of flies, % Tests laboratory” value in the series with domestic flies [1] is 100%. Further, in the series on domestic flies [2], the “Death of flies, % Tests large-scale” value is 100%. Moreover, the killing at 1 % came to 100% in [3]; 75% in the series on hepatitis B virus (0.25 h, 15 min, read-out: Death of viruses (%) under exposure, Hepatitis B, 15 min); 100% with hepatitis B virus (0.5 h, 30 min, read-out: Death of viruses (%) under exposure, Hepatitis B, 30 min); 100% with hepatitis B virus (1 h, 60 min, read-out: Death of viruses (%) under exposure, Hepatitis B, 60 min); 30% in the series on influenza A virus (0.25 h, 15 min, read-out: Death of viruses (%) under exposure, Influenza A, 15 min); 50% with influenza A virus (0.5 h, 30 min, read-out: Death of viruses (%) under exposure, Influenza A, 30 min). Moreover, the killing at 1 % is 100% in the series with influenza A virus (1 h, 60 min, read-out: Death of viruses (%) under exposure, Influenza A, 60 min); 20% in the series with poliomyelitis virus (10 min, 10 min, read-out: Death of viruses (%) under exposure, Poliomyelitis, 10 min); 50% with poliomyelitis virus (0.5 h, 30 min, read-out: Death of viruses (%) under exposure, Poliomyelitis, 30 min); 70% in the series with poliomyelitis virus (1 h, 60 min, read-out: Death of viruses (%) under exposure, Poliomyelitis, 60 min). Also, in the series with tomato nematodes, the mortality at 1 % turned out to be 100%. The killing at 2 % in the series on pig ascarid ovigerms (setting [6]) was determined as 68.1%; in the series on pig ascarid ovigerms (setting [7]) it was 93.4%; in the series on pig ascarid ovigerms (72 h, read-out: Death of ascarid ovigerms (%) in 72 h), 100%. Moreover, the “phytotoxic effects on the leaves of tomatoes and cucumbers” value in [4] is recorded as “no phytotoxic effects”. In addition, the solubility result in series [5] is “soluble in water, alcohols, acetone, benzene, toluene”.

As to `O=C(N[C@H](COP(=NC(=O)C(Cl)(Cl)Cl)(OC[C@@H](NC(=O)C(Cl)Cl)[C@H](O)c1ccc([N+](=O)[O-])cc1)OC[C@@H](NC(=O)C(Cl)Cl)[C@H](O)c1ccc([N+](=O)[O-])cc1)[C@H](O)c1ccc([N+](=O)[O-])cc1)C(Cl)Cl` [Example 7, d(-)--threo-3-para-nitrophenyl-2-dichloroacetamido-3-hydroxypro-poxyphosphazotrichloroacetyl], the killing at 3 % in the series on pig ascaride ovigerms is 100%; in the series on helminthic ova, 98%. For the same molecule, the solubility entry in series [5] was “soluble.in water, alcohols, acetone,--benzene, toluene”.

For the molecule `COP(=O)(OC)OC=C(Cl)Cl` [Known nematocidal preparation, 0,0-dimethyl-0-/2,2-dichlorovinyl/phosphate], the killing at 1 % in series [3] is 88.1%. Besides, in the series with tomato nematodes, the mortality at 1 % worked out at 76%.

On to `CNC(=S)S` [carbathion, sodium N-methyldithiocarbamate dihydrate], for which the killing at 2 % in the series on pig ascarid ovigerms (setting [6]) worked out at 60%; in the series with pig ascarid ovigerms (setting [7]), 80%. Further, the killing at 3 % amounted to 60% in the series on pig ascaride ovigerms and 59% in the series on helminthic ova.
